This test relates to F420-dependent dehydrogenase (ORF 9). It counts as biochemical, Rhodococcus erythropolis HL PM-1.

Each structure is given as a SMILES string.

Regarding `O=[N+]([O-])c1ccc(O)c([N+](=O)[O-])c1` [DNP, 2,4-dinitrophenol], the “reduction of the substrate to its Meisenheimer complex upon addition of ORF 9 extract” value was “reduces”.

(Values after patent US6461856B2 (priority 1999, dated 2002).)
